Test results from patent US11254654B2, “Heterochromatin gene repression inhibitors” (The University of North Carolina at Chapel Hill, priority 2017, dated 2022).
Counter-ions that a name gives are not always drawn.

How the values were obtained:
[1] = test system: HP1 heterochromatin pathway; experiment: Small molecule high-throughput flow cytometry screen, CiA:Oct4 N118/N163 cells with rapamycin (csHP1α recruitment); type: cell-based, mouse; details: 10 μM compound, + 6 nM rapamycin, 48 hrs
Source text: The CiA:Oct4 recruitment system in mouse embryonic stem cells contains Gal4 and Zinc finger DNA binding arrays and a downstream nuclear eGFP gene in place of a single Oct4 allele as previously described (Hathaway et al., 2012). The CiA:Oct4 N118/N163 cell line containing viral integrations of N118 and N163 plasmids (N118-nLV EF-1α-Gal-FKBPx1-HA-PGK-Blast, N163-nLV EF-1α-HP1α (CS)-Frbx2(Frb+FrbWobb)-V5-PGK-Puro) was used for all experiments unless otherwise stated. The CiA:Oct4 N205 line containing the lentiviral construct N205 (N205-nLV EF-1α-ZFHD1-link-FKBP-HA <T2A> HP1αCS-Frbx2-V5-PGK-Blast) was used for shRNA experiments. CiA:Oct4 N118 was infected with the lentiviral construct N192 (N192-nLV Dual Promoter EF-1α-MCS-PGK-Puro HP1γ-(CS)-Frbx2(wobbmo)-V5) to yield the csHP1γ recruitment system CiA:Oct4 N118/N192. For orthogonal recruitment system, stable mESC cell line with blue fluorescent protein (BFP) reporter gene with tetracycline response elements (TRE) was generated by recombinase-mediated cassette exchange, by introducing the reporter cassette DNA in plasmid YR06 into a genetrap located on chromosome 15 at genome coordinates chr15:99941948 (Lienert et al. (2011) Nature Genetics 43(11): 1091-1097; Elling et al. (2017) Nature 550(7674): 114-118). […]
Flow cytometry was performed using an Intellicyt iQue Screener and analyzed with FlowJo software. […]

TC1 ES cells = experiment: Whole cell histone modification levels, Western blot densitometry; type: cell-based; details: 48 hrs with compound, normalized over total Histone H4
Method: The ability to reduce global H3K9-me2 and -me3 levels with the novel HP1 inhibitors was previously examined (see FIG. 20). […] Oct4-GFP will be measured by flow cytometry, H3K9me3 enrichment by ChIP, and DNA methylation levels by bisulfite sequencing at 2, 4, and 6 days post RA addition output measurements. Expression and chromatin modifications will also be examined at other RA regulated genes such as […] using GAPDH as a control.
Referring to FIG. 20, TC1 ES cells were incubated 48 hrs with compound. Histones marks were measured by Western blot densitometry with the indicated antibody. The results were normalized over the total Histone H4 as a percentage of untreated controls.

CiA:Oct4 N118/N163 cells = experiment: Minus rapamycin counter screen for toxicity and cell differentiation; type: cell-based; details: 10 μM compound, no rapamycin, 48 hrs
Method: Day 0, CiA:Oct4 N118/163 cells were grown in ES media and seeded at a density of 10,000 cells per well (100,000 cells/mL) into gelatin coated 96 well plates. Day 1, media was aspirated and replaced with […] fresh ES media containing +/−6 nM rapamycin and 10 μM dilution of compounds from the EpiG compound set. Day 2, 100 μL fresh ES media containing +/−6 nM rapamycin and 10 μM dilution of compounds from the EpiG compound set was added as on Day 1. Day 3, the media was aspirated out of the wells and the cells were washed with PBS and trypsinized using 0.25% trypsin-EDTA. Trypsin was quenched with serum. Cells were resuspended by pipetting to prepare the plates for flow cytometry analysis.
Flow cytometry was performed using an Intellicyt iQue Screener and analyzed with FlowJo software. Cell populations were gated based on forward and side scatter area. Single cell populations were isolated using forward scatter area by forward scatter height gating. Dead or dying cells that equally fluoresced in the GFP and APC channels upon excitation with 488 nm laser were omitted as autofluorescent, and the remaining cells were gated into GFP (−) and GFP (+) populations. […] Statistics were performed using standard T-test analysis.
The CiA:Oct4 N118/N163 recruitment system also functions as an internal counter screen for toxicity and cell differentiation in the absence of rapamycin recruited csHP1α. […]

COc1cc2nc(N3CCCC3)nc(N[C@H]3CCCNC3)c2cc1OC [compound 1, (S)-6,7-Dimethoxy-N-(Piperidin-3-yl)-2-(Pyrrolidin-1-yl)Quinazolin-4-Amine Trifluoroacetic Acid Salt]
GFP expression / % GFP (+) population despite csHP1α recruitment [1]: increased expression of GFP | Bulk di- and tri-H3K9 methylation (TC1 ES cells): significantly block | GFP positive population levels without csHP1α recruitment (CiA:Oct4 N118/N163 cells): did not decrease GFP positive population levels
